Consider 10 compounds from patent US20210395239A1 (Hoffmann-La Roche Inc., priority 2018, published 2021).

For this assay, the target named is T1, human TLR8 (Homo sapiens, UniProt Q9NR97).
T1 construct: host or cells: HEK293 (HEK-Blue hTLR8)
T1 sequence (Q9NR97 27-1041): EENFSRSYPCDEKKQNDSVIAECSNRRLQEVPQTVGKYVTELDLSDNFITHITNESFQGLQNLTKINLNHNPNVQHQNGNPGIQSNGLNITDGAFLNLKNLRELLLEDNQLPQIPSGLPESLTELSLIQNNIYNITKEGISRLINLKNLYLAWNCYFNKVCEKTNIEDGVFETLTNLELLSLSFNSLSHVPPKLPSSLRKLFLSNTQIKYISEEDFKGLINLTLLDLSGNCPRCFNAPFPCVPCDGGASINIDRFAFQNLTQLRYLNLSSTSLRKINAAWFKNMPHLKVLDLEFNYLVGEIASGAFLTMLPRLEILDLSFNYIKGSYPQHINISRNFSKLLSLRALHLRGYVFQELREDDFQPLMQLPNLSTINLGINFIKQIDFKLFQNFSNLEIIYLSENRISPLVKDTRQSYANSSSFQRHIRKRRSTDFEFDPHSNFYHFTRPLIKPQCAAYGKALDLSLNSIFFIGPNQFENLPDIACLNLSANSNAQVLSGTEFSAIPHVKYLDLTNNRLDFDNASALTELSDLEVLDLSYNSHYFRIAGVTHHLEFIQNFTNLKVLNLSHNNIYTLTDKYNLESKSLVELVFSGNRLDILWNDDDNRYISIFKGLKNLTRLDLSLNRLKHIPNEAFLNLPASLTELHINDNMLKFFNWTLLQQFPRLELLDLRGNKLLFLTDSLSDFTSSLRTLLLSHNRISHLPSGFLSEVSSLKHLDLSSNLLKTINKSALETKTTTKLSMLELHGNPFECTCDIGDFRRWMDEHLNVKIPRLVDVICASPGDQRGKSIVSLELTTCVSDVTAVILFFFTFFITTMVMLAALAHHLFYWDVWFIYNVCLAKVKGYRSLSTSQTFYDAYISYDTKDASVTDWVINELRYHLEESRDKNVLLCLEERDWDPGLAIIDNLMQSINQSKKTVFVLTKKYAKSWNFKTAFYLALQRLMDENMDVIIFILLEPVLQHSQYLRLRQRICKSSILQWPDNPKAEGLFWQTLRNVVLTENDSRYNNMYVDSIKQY
Kind of assay: HEK293-Blue-hTLR-8 cells assay (SEAP reporter, R848 stimulation). In kind it is cell-based. As to conditions: HEK293-Blue-hTLR8 cells, R848, 20 hrs; read-out: HEK/hTLR8 IC50. The method in brief:
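Antagonism read as reduced R848-induced SEAP reporter secretion, detected by QUANTI-Blue absorbance at 620–655 nm after 2 h. Reporter cells were exposed to compound dilutions in DMEM/10% FBS, 1% DMSO, for 20 h at 37° C.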
On to `Cc1cc(N2CCNCC2)nc(N2CCN(C[C@H]3CN(c4ccc(C#N)c5ncccc45)C[C@@H](C)O3)CC2)n1` [Example 68, 5-[(2R,6S)-2-methyl-6-[[4-(4-methyl-6-piperazin-1-yl-pyrimidin-2-yl)piperazin-1-yl]methyl]morpholin-4-yl]quinoline-8-carbonitrile], for which the IC50 is 2 nM.
As to `C[C@@H]1CN(c2ccc(C#N)n3ncc(F)c23)C[C@H](CN2CCN(c3ccc(N4CCOC5(CNC5)C4)nc3)CC2)O1` [Example 178, 3-fluoro-4-[(2R,6S)-2-methyl-6-[[4-[6-(5-oxa-2,8-diazaspiro[3.5]nonan-8-yl)-3-pyridyl]piperazin-1-yl]methyl]morpholin-4-yl]pyrazolo[1,5-a]pyridine-7-carbonitrile], the IC50 came to 91 nM.
In the case of `C[C@@H]1CN(c2ccc(C#N)n3ncc(F)c23)C[C@H](CN2CCN(c3ccc(C[C@@H]4CNCCO4)cc3)CC2)O1` [Example 186, 3-fluoro-4-[(2R,6S)-2-methyl-6-[[4-[4-[[(2R)-morpholin-2-yl]methyl]phenyl]piperazin-1-yl]methyl]morpholin-4-yl]pyrazolo[1,5-a]pyridine-7-carbonitrile], the IC50 amounted to 23 nM.
On to `C[C@@H]1CN(c2ccc(C#N)n3ncc(F)c23)C[C@H](CN2CCN(c3ccc([C@@H]4CNCCO4)c(F)c3)CC2)O1` [Example 184, 3-fluoro-4-[(2S,6R)-2-[[4-[3-fluoro-4-[(2R)-morpholin-2-yl]phenyl]piperazin-1-yl]methyl]-6-methyl-morpholin-4-yl]pyrazolo[1,5-a]pyridine-7-carbonitrile], for which the IC50 was found to be 14 nM.
Turning to `C[C@@H]1CN(c2cc(=O)n(C)c3ncccc23)C[C@H](CN2CC(c3ccc(N4CC(C)(N)C4)cc3)C2)O1` [Example 176, 4-[(2S,6R)-2-[[3-[4-(3-amino-3-methyl-azetidin-1-yl)phenyl]azetidin-1-yl]methyl]-6-methyl-morpholin-4-yl]-1-methyl-1,8-naphthyridin-2-one], the IC50 stood at 323 nM.
As for `Cc1nc(N2CCNCC2)nc(N2CCN(C[C@H]3CN(c4ccc(C#N)c5ncccc45)C[C@@H](C)O3)CC2)c1C` [Example 46, 5-[(2S,6R)-2-[[4-(5,6-dimethyl-2-piperazin-1-yl-pyrimidin-4-yl)piperazin-1-yl]methyl]-6-methyl-morpholin-4-yl]quinoline-8-carbonitrile], the IC50 was 9 nM.
On to `C[C@@H]1CN(c2ccc(C#N)n3ncc(F)c23)C[C@H](CN2CCN(c3ccc(N4CC5(CN(C)C5)C4)nc3)CC2)O1` [Example 170, 3-fluoro-4-[(2R,6S)-2-methyl-6-[[4-[6-(6-methyl-2,6-diazaspiro[3.3]heptan-2-yl)-3-pyridyl]piperazin-1-yl]methyl]morpholin-4-yl]pyrazolo[1,5-a]pyridine-7-carbonitrile], for which the IC50 amounted to 13 nM.
With `Cc1cc(N2CCN(C[C@H]3CN(c4ccc(C#N)c5ncccc45)C[C@@H](C)O3)CC2)nc(N2CCNCC2)n1` [Example 47, 5-[(2R,6S)-2-methyl-6-[[4-(6-methyl-2-piperazin-1-yl-pyrimidin-4-yl)piperazin-1-yl]methyl]morpholin-4-yl]quinoline-8-carbonitrile], the IC50 came to 3 nM.
`C[C@@H]1CN(c2cc(=O)n(C)c3ncccc23)C[C@H](CN2CC(c3ccc(N4C[C@H]5NCCO[C@@H]5C4)cc3)C2)O1` [Example 182, 4-[(2S,6R)-2-[[3-[4-[(4aR,7aR)-3,4,4a,5,7,7a-hexahydro-2H-pyrrolo[3,4-b][1,4]oxazin-6-yl]phenyl]azetidin-1-yl]methyl]-6-methyl-morpholin-4-yl]-1-methyl-1,8-naphthyridin-2-one]: the IC50 was 51 nM.
Under `C[C@@H]1CN(c2ccc(C#N)c3ncccc23)C[C@H](CN2CCN(c3ccc(N4CC(N)C(F)C4)nc3)CC2)O1` (stereo partly drawn) [Example 44, 5-[(2S,6R)-2-[[4-[6-(3-amino-4-fluoro-pyrrolidin-1-yl)-3-pyridyl]piperazin-1-yl]methyl]-6-methyl-morpholin-4-yl]quinoline-8-carbonitrile] stands 10 nM.
